Measured values published in patent US20110173709A1, “ECTOPIC, ORTHOTOPIC MODEL FOR REVASCULARIZATION AND TUMOR ASSESSMENT” (Sidney Kimmel Cancer Center, priority 2007, published 2011).

Tested on: N202-H2BGFP tumor spheroids
Test: Doxorubicin treatment of N202-H2BGFP tumor spheroids in dorsal skinfold window chamber
Type: in vivo, mouse
Details: single dose 1 or 5 mg/kg via the tail vein after re-vascularization, nu/nu nude mice

COc1cccc2c1C(=O)c1c(O)c3c(c(O)c1C2=O)C[C@@](O)(C(=O)CO)C[C@@H]3O[C@H]1C[C@H](N)[C@H](O)[C@H](C)O1 [Doxorubicin]
effect on the growing tumor implanted on the engrafted mammary fat pad (orthotopic engrafted mammary fat pad, over a 2 week period, FIG. 6B): little to no effect | effect on the growing tumor implanted on the skinfold (tumor implanted on skinfold, FIG. 6A): essentially tumor stasis
